Data reported in US10131652B2, “Pyrimidinyloxy benzene derivatives as herbicides” (E. I. DU PONT DE NEMOURS AND COMPANY, priority 2014, dated 2018).

How the values were obtained:
Format in all cases: in vivo
[1] = system: wheat (Triticum aestivum); experiment: Test B pre-/postemergence plant response
Procedure, shortened: (§1)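 Greenhouse pots, loam/sand soil; compound formulated with surfactant in non-phytotoxic solvent. Preemergence soil spray and postemergence spray at 1–2 leaf stage run simultaneously. Visual injury, 0–100, about 10 days post-treatment.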

kochia (Kochia scoparia) = experiment: Test B pre-/postemergence plant response
Procedure, shortened: as §1

[2] = system: Italian ryegrass (Lolium multiflorum); experiment: Test B pre-/postemergence plant response
Procedure, shortened: as §1

corn (Zea mays) = experiment: Test B pre-/postemergence plant response
Procedure, shortened: as §1

[3] = system: ragweed (common ragweed, Ambrosia elatior); experiment: Test B pre-/postemergence plant response
Procedure, shortened: as §1

[4] = system: giant foxtail (Setaria faberii); experiment: Test B pre-/postemergence plant response
Procedure, shortened: as §1

[5] = system: pigweed (Amaranthus retroflexus); experiment: Test B pre-/postemergence plant response
Procedure, shortened: as §1

[6] = system: barnyardgrass (Echinochloa crus-galli); experiment: Test B pre-/postemergence plant response
Procedure, shortened: as §1

[7] = system: galium (catchweed bedstraw, Galium aparine); experiment: Test B postemergence plant response
Procedure, shortened: (§2)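 Injury was assessed visually about 10 days after treatment, scored from 0 (no effect) to 100 (complete control) by comparison with untreated controls. Test chemicals had been applied postemergence to potted plants at the one- to two-leaf stage, grown in loam soil and sand in a greenhouse.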

[8] = system: blackgrass (Alopecurus myosuroides); experiment: Test B postemergence plant response
Procedure, shortened: as §2

[9] = system: small-flower umbrella sedge (Cyperus difformis); experiment: Test C flooded paddy test plant response; settings: Flood, 250 g ai/ha; scale of 0 to 100 where 0 is no effect and 100 is complete control; 13 to 15 days
Procedure, shortened: (§3)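 Plants grown to 2-leaf stage, flooded 3 cm above soil; compounds applied directly into paddy water, depth kept throughout. Visual rating versus controls after 13 to 15 days in greenhouse, 0 (no effect) to 100 (complete control).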

rice (Oryza sativa) = experiment: Test C flooded paddy test plant response; settings: Flood, 250 g ai/ha; scale of 0 to 100 where 0 is no effect and 100 is complete control; 13 to 15 days
Procedure, shortened: as §3

[10] = system: ducksalad (Heteranthera limosa); experiment: Test C flooded paddy test plant response; settings: Flood, 250 g ai/ha; scale of 0 to 100 where 0 is no effect and 100 is complete control; 13 to 15 days
Procedure, shortened: as §3

[11] = system: barnyardgrass (Echinochloa crus-galli); experiment: Test C flooded paddy test plant response; settings: Flood, 250 g ai/ha; scale of 0 to 100 where 0 is no effect and 100 is complete control; 13 to 15 days
Procedure, shortened: as §3

[12] = 125 g ai/ha, postemergence, 0 to 100 scale, 0 no effect, 100 complete control
[13] = Postemergence, 500 g ai/ha, 0 to 100 scale (0 no effect, 100 complete control)
[14] = Preemergence, 125 g ai/ha, 0 to 100 scale (0 no effect, 100 complete control)
[15] = Preemergence, 500 g ai/ha, 0 to 100 scale where 0 is no effect and 100 is complete control
[16] = Preemergence, 125 g ai/ha, 0 to 100 scale where 0 is no effect and 100 is complete control
[17] = 31 g ai/ha, Preemergence, 0 to 100 scale where 0 is no effect and 100 is complete control
[18] = 31 g ai/ha, Postemergence, 0 to 100 scale, 0 no effect, 100 complete control

SMILES | Plant response rating, Wheat [1, 12] | Plant response rating, Wheat [1, 13] | Plant response rating, Kochia (kochia (Kochia scoparia); [12]) | Plant response rating, Kochia (kochia (Kochia scoparia); [13]) | Kochia plant response rating (kochia (Kochia scoparia); [14]) | Plant response rating, Kochia (kochia (Kochia scoparia); [15]) | Plant response rating, Ryegrass, Italian [2, 12] | Plant response rating, Ryegrass, Italian [2, 13] | Ryegrass, Italian plant response rating [2, 14] | Plant response rating, Corn (corn (Zea mays); [12]) | Plant response rating, Ragweed [3, 12] | Plant response rating, Foxtail, Giant [4, 12] | Plant response rating, Pigweed [5, 12] | Plant response rating, Barnyardgrass [6, 12] | Plant response rating, Galium [7, 12] | Plant response rating, Blackgrass [8, 12] | Sedge, Umbrella plant response rating [9] | Rice plant response rating (rice (Oryza sativa)) | Ducksalad plant response rating [10] | Barnyardgrass plant response rating [11] | further results
FC(F)c1cc(-c2ccccc2Oc2ncc(Cl)cn2)ncn1 [Compound 184] | 0 | 10 | 70 | 100 | 20 | 100 | 0 | 20 | 0 | 10 | 20 | 10 | 90 | 0 | 70 | 10 | 0 | 0 | 0 | 0 | Plant response rating, Ryegrass, Italian [2, 15]: 10; Plant response rating, Corn (corn (Zea mays); [13]): 20; Plant response rating, Ragweed [3, 13]: 40; Ragweed plant response rating [3, 14]: 0; Plant response rating, Ragweed [3, 15]: 50; Plant response rating, Foxtail, Giant [4, 13]: 70; Foxtail, Giant plant response rating [4, 14]: 20; Plant response rating, Foxtail, Giant [4, 15]: 90; Plant response rating, Pigweed [5, 13]: 100; Pigweed plant response rating [5, 14]: 80; Plant response rating, Pigweed [5, 15]: 100; Plant response rating, Barnyardgrass [6, 13]: 50; Barnyardgrass plant response rating [6, 14]: 10; Plant response rating, Barnyardgrass [6, 15]: 90; Plant response rating, Galium [7, 13]: 100; Plant response rating, Blackgrass [8, 13]: 60
Cn1nnnc1-c1ccccc1Oc1ncc(Cl)cn1 [Compound 47] | 0 | 10 | 60 | 80 |  | 70 | 0 | 0 |  | 0 | 20 | 0 | 50 | 0 | 30 | 0 | 0 | 0 | 0 | 0 | Plant response rating, Kochia (kochia (Kochia scoparia); [16]): 60; Plant response rating, Ryegrass, Italian [2, 16]: 0; Plant response rating, Ryegrass, Italian [2, 15]: 0; Plant response rating, Corn (corn (Zea mays); [13]): 0; Plant response rating, Ragweed [3, 13]: 30; Plant response rating, Ragweed [3, 16]: 10; Plant response rating, Ragweed [3, 15]: 60; Plant response rating, Foxtail, Giant [4, 13]: 50; Plant response rating, Foxtail, Giant [4, 16]: 10; Plant response rating, Foxtail, Giant [4, 15]: 30; Plant response rating, Pigweed [5, 13]: 70; Plant response rating, Pigweed [5, 16]: 30; Plant response rating, Pigweed [5, 15]: 60; Plant response rating, Barnyardgrass [6, 13]: 0; Plant response rating, Barnyardgrass [6, 16]: 0; Plant response rating, Barnyardgrass [6, 15]: 0; Plant response rating, Galium [7, 13]: 60; Plant response rating, Blackgrass [8, 13]: 0
FC(F)(F)c1cc(-c2c(Cl)cccc2Oc2ncc(Br)cn2)on1 [Compound 127] | 20 |  | 90 |  | 90 |  | 90 |  | 90 | 50 | 50 | 90 | 100 | 100 | 100 | 90 | 100 | 60 | 100 | 50 | Plant response rating, Kochia (kochia (Kochia scoparia); [17]): 80; Plant response rating, Ryegrass, Italian [2, 17]: 30; Plant response rating, Corn (corn (Zea mays); [18]): 20; Plant response rating, Ragweed [3, 17]: 10; Ragweed plant response rating [3, 14]: 30; Plant response rating, Foxtail, Giant [4, 18]: 50; Plant response rating, Foxtail, Giant [4, 17]: 100; Foxtail, Giant plant response rating [4, 14]: 100; Plant response rating, Pigweed [5, 17]: 100; Pigweed plant response rating [5, 14]: 100; Plant response rating, Barnyardgrass [6, 18]: 30; Plant response rating, Barnyardgrass [6, 17]: 70; Barnyardgrass plant response rating [6, 14]: 90; Plant response rating, Blackgrass [8, 18]: 30
